Source: patent US11384069B2, “Diphenylaminopyrimidine compound for inhibiting kinase activity” (Shenzhen TargetRx, Inc., priority 2018, dated 2022)

Assays:
BaF3-EpoR-JAK2 cells = experiment: Cytotoxicity assay, BaF3-EpoR-JAK2 cells (CellTiter-Glo); type: cell-based; conditions: 72 h; 3 days incubation, 1 ng/ml IL-3, CellTiter-Glo
Protocol: The inhibitory effects of example compounds on the activity of BaF3-EpoR-JAK2 and BaF3-EpoR-JAK2/V617F cells were determined.
Materials and reagents: RPMI-1640 medium (GIBCO, Cat. No. A10491-01), fetal bovine serum (GIBCO, Cat. No. 10099-141), antibiotics (GIBCO, Cat. No. 10010-031), IL-3 (CST, Cat. No. 8923SF), phosphate buffer solution PBS (GIBCO, Cat. No. 10010-0312), penicillin-streptomycin (GIBCO, Cat. No. 15140-122);
Cell lines: BaF3-EpoR-JAK2 cells (Pharmaron), BaF3-EpoR-JAK2/V617F cells (Pharmaron), live cell assay kit CellTiter-Glo4 (Promega, Cat. No. G7572), 96-well black-wall clear flat-bottom cell culture plate (Corning, Cat. No. 3340).
(§1) Assay method: 1. Preparation of cell plates. BaF3-EpoR-JAK2 cells and BaF3-EpoR-JAK2/V617F cells were seeded in 96-well plates, respectively, and 1 ng/ml IL-3 was added to Ba/F3 cells. The cell plates were placed in a carbon dioxide incubator for overnight culture. 2. The test compounds were dissolved in DMSO and subjected to 3-fold gradient dilution, 9 compound concentrations were obtained in duplicate. 3. Treatments of Cells with Compounds. The compounds were transferred to cell plates, and the starting concentration of the compounds is 10 μM. The cell plates were incubated in a carbon dioxide incubator for 3 days. 4. Detection. A CellTiter-Glo reagent was added to the cell plates and incubated for 30 minutes at room temperature to stabilize the luminescence signal. Reading was obtained using a PerkinElmer Envision multi-label analyzer.

[1] = test system: BaF3-EpoR-JAK2/V617F cells; experiment: Cytotoxicity assay, BaF3-EpoR-JAK2/V617F cells (CellTiter-Glo); type: cell-based; conditions: 72 h; 3 days incubation, 1 ng/ml IL-3, CellTiter-Glo
Protocol: as §1, with “BaF3-EpoR-JAK2 cells and BaF3-EpoR-JAK2/V617F cells were seeded in 96-well plates, respectively, and 1 ng/ml IL-3 was added to Ba/F3 cells.” left out

[2] = Metabolic stability evaluation, rat liver microsome experiment; type: in vitro ADME; conditions: liver microsomes, pH 7.4, 1 μM compound, 0.5 mg/mL protein, 37° C.; for half-life at 1 μM: read-out: Rat liver microsome experiment t1/2
Protocol: (§2) Microsomal experiment: human liver microsomes: 0.5 mg/mL, Xenotech; rat liver microsomes: 0.5 mg/mL, Xenotech; mouse liver microsomes: 0.5 mg/mL, Xenotech; coenzyme (NADPH/NADH): 1 mM, Sigma Life Science; magnesium chloride: 5 mM, 100 mM phosphate buffer (pH 7.4).
(§3) Preparation of a stock solution: A certain amount of the powder of the example compounds was accurately weighed and dissolved in DMSO to a 5 mM concentration.
(§4) Preparation of phosphate buffer (100 mM, pH 7.4): 150 mL of a pre-prepared 0.5 M potassium dihydrogen phosphate and 700 mL of a pre-prepared 0.5 M dipotassium hydrogen phosphate were mixed. The mixture was then adjusted to pH 7.4 with a 0.5 M dipotassium hydrogen phosphate solution. The mixture was diluted 5-fold with ultrapure water before use, and magnesium chloride was added to obtain a phosphate buffer (100 mM) containing 100 mM potassium phosphate, 3.3 mM magnesium chloride, and a pH of 7.4.
(§5) A solution of NADPH regeneration system (containing 6.5 mM NADP, 16.5 mM G-6-P, 3 U/mL G-6-P D, 3.3 mM magnesium chloride) was prepared and placed on wet ice before use.
(§6) Preparation of a stop solution: an acetonitrile solution containing 50 ng/mL propranolol hydrochloride and 200 ng/mL tolbutamide (internal standard). 25057.5 μL of phosphate buffer (pH 7.4) was added into a 50 mL centrifuge tube, 812.5 μL of human liver microsomes, rat liver microsomes and mouse liver microsomes were then added into the 50 mL centrifuge tube, respectively, and the mixtures were mixed evenly to obtain liver microsome dilutions with a protein concentration of 0.625 mg/mL. Incubation of samples: The stock solutions of the corresponding compounds were diluted to 0.25 mM with an aqueous solution containing 70% acetonitrile, respectively, and used as working solutions ready for use. 398 μL of dilutions of human liver microsomes or rat liver microsomes or mouse liver microsome were added to 96-well incubation plates (N=2), and then 2 μL of 0.25 mM working solutions were added and mixed, respectively.
(§7) Determination of metabolic stability: 300 μL of a pre-cooled stop solution was added to each well of a 96-well deep well plate and placed on ice as a stop plate. The 96-well incubation plate and the NADPH regeneration system were placed in a 37° C. water bath, shaken at 100 rpm, and pre-incubated for 5 min. 80 μL of an incubation solution was taken from each well of the incubation plate and added to the stop plate, mixed evenly, and replenished with 20 μL of NADPH regeneration system solution as a 0 min sample. 80 μL of NADPH regeneration system solution was then added to each well of the incubation plate to start the reaction, and timing was started. […] 100 μL of the reaction solution was taken at 10, 30, and 90 min after reaction, respectively, added to the stop plate, and vortexed for 3 minutes to terminate the reaction. The stop plate was centrifuged for 10 min at 5000×g at 4° C. 100 μL of the supernatant was added to a 96-well plate to which 100 μL of distilled water was previously added, mixed evenly, and analyzed by LC-MS/MS.
(§8) Data analysis: The peak areas of the corresponding compounds and internal standard were detected by LC-MS/MS system, and the ratio of the peak areas of the compounds to the internal standard was calculated.

[3] = Metabolic stability evaluation, mouse liver microsome experiment; type: in vitro ADME; conditions: liver microsomes, pH 7.4, 1 μM compound, 0.5 mg/mL protein, 37° C.; for half-life at 1 μM: read-out: Mouse liver microsome experiment t1/2
Protocol: as §2, §3, §4, §5, §6, §7, §8

[4] = Metabolic stability evaluation, human liver microsome experiment; type: in vitro ADME; conditions: liver microsomes, pH 7.4, 1 μM compound, 0.5 mg/mL protein, 37° C.; for half-life at 1 μM: read-out: Human liver microsome experiment t1/2
Protocol: as §2, §3, §4, §5, §6, §7, §8

[5] = Rat pharmacokinetic experiment; type: in vivo; conditions: male Sprague-Dawley rats, single dose 3 mg/kg intravenously, 10 mg/kg orally
Protocol: 6 male Sprague-Dawley rats (7-8 weeks old, and weighted approximately 210 g) were divided into 2 groups with 3 rats in each group. The rats were intravenously or orally administered a single dose of compound (3 mg/kg intravenously, 10 mg/kg orally) to compare pharmacokinetic differences.
The rats were raised on standard food and water. Fasting was started 16 hours before the test. The drug was dissolved with PEG400 and dimethyl sulfoxide. The blood samples were collected from eyelids at the time points of 0.083 hours, 0.25 hours, 0.5 hours, 1 hour, 2 hours, 4 hours, 6 hours, 8 hours, 12 hours, and 24 hours after administration.
Rats were briefly anesthetized after inhalation of diethyl ether and 300 μL of blood sample was collected from the eyelids into test tubes. There was 30 μL of 1% heparin salt solution in the test tube. Tubes were dried at 60° C. overnight before use. After the blood sample was collected at the last time point, the rats were sacrificed after ether anesthesia.
Immediately after the collection of the blood sample, the test tube was gently inverted at least 5 times to ensure sufficient mixing and then placed on ice. […] The concentration of the compound disclosed herein in plasma was determined by LC-MS/MS. The pharmacokinetic parameters were calculated based on the drug concentration in blood of each animal at different time points.

SMILES	microsomal CLint at 1 μM [2] [µL/min/mg]	half-life at 1 μM [2] [min]	microsomal CLint at 1 μM [3] [µL/min/mg]	half-life at 1 μM [3] [min]	microsomal CLint at 1 μM [4] [µL/min/mg]	half-life at 1 μM [4] [min]	Oral availability [5] [%]	IC50 (BaF3-EpoR-JAK2 cells) [nM]	IC50 [1] [nM]
[2H]C([2H])([2H])C(C)(NS(=O)(=O)c1cccc(Nc2nc(Nc3ccc(OCCN4CCCC4)cc3)ncc2C)c1)C([2H])([2H])[2H] [Compound T-3, 3-((5-methyl-2-((4-(2-(pyrrolidin-1-yl)ethoxy)phenyl)amino)pyrimidin-4-yl)amino)-N-(2-methylpropan-2-yl-1,1,1,3,3,3-d6)benzenesulfonamide]	80.4	17.2	206	6.7	–	–	–	604	244
[2H]C([2H])(Oc1ccc(Nc2ncc(C)c(Nc3cccc(S(=O)(=O)NC(C)(C)C)c3)n2)cc1)C([2H])([2H])N1CCCC1 [Compound T-1, N-(tert-butyl)-3-((5-methyl-2-((4-(2-(pyrrolidin-1-yl)ethoxy-1,1,2,2-d4)phenyl)amino)pyrimidin-4-yl)amino)benzenesulfonamide]	73.9	18.7	157	8.8	6.8	203	–	536	206
[2H]c1nc(Nc2ccc(OCCN3CCCC3)cc2)nc(Nc2cccc(S(=O)(=O)NC(C)(C)C)c2)c1C([2H])([2H])[2H] [Compound T-2, N-(tert-butyl)-3-((5-(methyl-d3)-2-((4-(2-(pyrrolidin-1-yl)ethoxy)phenyl)amino)pyrimidin-4-yl-6-d)amino)benzenesulfonamide]	–	–	174	8	–	–	–	725	196

The next lines start with results.

microsomal CLint at 1 μM [2] [µL/min/mg]	half-life at 1 μM [2] [min]	microsomal CLint at 1 μM [3] [µL/min/mg]	half-life at 1 μM [3] [min]	microsomal CLint at 1 μM [4] [µL/min/mg]	half-life at 1 μM [4] [min]	Oral availability [5] [%]	SMILES	IC50 (BaF3-EpoR-JAK2 cells) [nM]	IC50 [1] [nM]
77	18	158	8.8	11.5	121	7.48	[2H]C1([2H])N(CCOc2ccc(Nc3ncc(C)c(Nc4cccc(S(=O)(=O)NC(C)(C)C)c4)n3)cc2)C([2H])([2H])C([2H])([2H])C1([2H])[2H] [Compound T-5, N-(tert-butyl)-3-((5-methyl-2-((4-(2-(pyrrolidin-1-yl-d8)ethoxy)phenyl)amino)pyrimidin-4-yl)amino)benzenesulfonamide]	690	269
76.6	18.1	194	7.1	–	–	–	[2H]C([2H])([2H])C(NS(=O)(=O)c1cccc(Nc2nc(Nc3ccc(OCCN4CCCC4)cc3)ncc2C)c1)(C([2H])([2H])[2H])C([2H])([2H])[2H] [Compound T-4, 3-((5-methyl-2-((4-(2-(pyrrolidin-1-yl)ethoxy)phenyl)amino)pyrimidin-4-yl)amino)-N-(2-(methyl-d3)propan-2-yl-1,1,1,3,3,3-d6)benzenesulfonamide]	587	238
81.3	17	238	5.8	12.5	111	7.24	Cc1cnc(Nc2ccc(OCCN3CCCC3)cc2)nc1Nc1cccc(S(=O)(=O)NC(C)(C)C)c1 [Fedratinib, N-(tert-butyl)-3-((5-methyl-2-((4-(2-(pyrrolidin-1-yl)ethoxy)phenyl)amino)pyrimidin-4-yl)amino)benzenesulfonamide, reference compound]	653	211
